# Measurements from article PMC12198407, “Preclinical and first-in-human of purinostat mesylate, a novel selective HDAC I/IIb inhibitor, in relapsed/refractory multiple myeloma and lymphoma” (Signal Transduction and Targeted Therapy, 2025).
# Read-outs that look alike come from different tables or passages of the source.
# Experiments:
# HDAC1 = HDAC1 (Homo sapiens, UniProt Q13547); assay: HDAC enzyme activity in vitro; assay type: biochemical
# MM1S xenograft = MM1S xenograft mouse model; assay type: in vivo, NOD-SCID mice; settings: for median survival time: satellite group, death = tumor 1500 mm³
# [1] = test system: mouse BM-derived osteoclasts (M-CSF, RANKL); assay: Osteoclast formation, TRAP staining; assay type: cell-based, C57BL/6 mice; settings: M-CSF and RANKL induced
# Method: Primary mouse BM cells were collected from 6-to-8 weeks C57BL/6 mice, and 1.0 × 10^5 cells were seeded into 48-well plates with α-MEM containing 10% FBS and 40 ng/mL M-CSF (PeproTech, catalog # 315-02) for 3 days to recruit macrophage and then induce osteoclast differentiation plus 50 ng/mL RANKL (R&D, catalog # 462-TEC-010/CF) with or without indicated concentration of PM for 4 days. Half-media changes were carried out every 2 days. The TRAP staining kit was purchased from Sigma-Aldrich (CS0704), and TRAP staining was performed according to the kit instructions.
# solid tumor cells = assay: Proliferation, MTT or Alamar Blue; assay type: cell-based; settings: Homo sapiens
# Ramos-luc = assay: Luciferase substrate viability assay; assay type: cell-based, human
# [2] = test system: human Burkitt lymphoma Raji; assay: Raji subcutaneous tumor model; assay type: in vivo, NOD/SCID mice
# Description: In contrast, both batches of the positive control CODOX group experienced instances of individual mortality during administration.
# [3] = Acute toxicity test, intravenous; assay type: in vivo, Beagle dogs
# Method: In this study, the designed doses were 10 and 50 mg/kg administered intravenously. […] The maximum tolerated dose (MTD) was determined to be 10 mg/kg.
# [4] = Safety pharmacology, ECG and blood pressure; assay type: in vivo, Beagle dogs; settings: 3.6 mg/kg i.v.
# Method: (§1) In the 1.2 and 3.6 mg/kg groups, transient increases in heart rate were observed, and in the 3.6 mg/kg group, a transient and reversible prolongation of QT interval (9.6%) was also noted. Additionally, there were no significant effects observed on other qualitative and quantitative ECG parameters or blood pressure in the dogs. […] In the 90 mg/kg group, reduced locomotor activity and decreased standing frequency were also observed, but these effects returned to baseline after 24 hours. No significant effects were noted on other neurological behaviors in rats, and no impacts on the respiratory system were observed.
# [5] = Safety pharmacology, CNS and respiratory; assay type: in vivo, rats; settings: 30 and 90 mg/kg i.v.
# Method: as §1
# [6] = Pharmacokinetics, intravenous; assay type: in vivo, Beagle dogs; settings: both sexes, Beagle, dog, plasma; for Vd: read-out: Vdss; for clearance: read-out: plasma clearance (CL)
# Method: The elimination half-lives (T1/2) were 4.49 ± 0.669, 7.05 ± 3.07, and 8.47 ± 1.26 hours, respectively. The area under the plasma concentration-time curve from time zero to the last quantifiable time point (AUC0-last) was 75.1 ± 18.3, 238 ± 63.1, and 713 ± 122 h•ng/mL, respectively.
# CYP2C8 = target: T1, CYP2C8 (Homo sapiens, UniProt P10632); assay: CYP inhibition, human liver microsomes; assay type: in vitro ADME
# T1 construct: human liver microsomal cytochrome P450 isoenzymes; from tissue; host or cells: human liver microsomes
# CYP2C9 = target: T2, CYP2C9 (Homo sapiens, UniProt P11712); assay: CYP inhibition, human liver microsomes; assay type: in vitro ADME
# T2 construct: human liver microsomal cytochrome P450 isoenzymes; from tissue; host or cells: human liver microsomes
# CYP2C19 = target: T3, CYP2C19 (Homo sapiens, UniProt P33261); assay: CYP inhibition, human liver microsomes; assay type: in vitro ADME
# T3 construct: human liver microsomal cytochrome P450 isoenzymes; from tissue; host or cells: human liver microsomes
# CYP2D6 = target: T4, CYP2D6 (Homo sapiens, UniProt P10635); assay: CYP inhibition, human liver microsomes; assay type: in vitro ADME
# T4 construct: human liver microsomal cytochrome P450 isoenzymes; from tissue; host or cells: human liver microsomes
# CYP1A2 = assay: CYP induction, cryopreserved human liver cells; assay type: in vitro ADME; settings: 0.0500, 0.500, 5.00 µM; three donors
# CYP3A4 = assay: CYP induction, cryopreserved human liver cells; assay type: in vitro ADME; settings: 0.0500, 0.500, 5.00 µM; three donors
# human liver cells = assay: Cytotoxicity on donor liver cells; assay type: cell-based
# Method for T315I Bcr-Abl B-ALL: Subcutaneous or orthotopic tumor models were established using NOD/SCID mice for human-derived lymphoma, multiple myeloma cell lines, and samples from clinical B-ALL patients. The Ighmyc transgenic mice and primary B-ALL models were induced using C57 mouse strains. The experimental doses of Purinostat Mesylate include 1.25, 2.5, 5, 10, and 20 mg/kg, administered via tail vein (i.v.) three times a week. In each model experiment, the positive control drugs included the HyperCVAD regimen (cyclophosphamide, doxorubicin, vincristine, dexamethasone, methotrexate, and cytarabine) simulating clinical treatment for double-hit lymphoma, the CODOX regimen (cyclophosphamide, doxorubicin, vincristine, methotrexate, and cytarabine) simulating clinical treatment for Burkitt lymphoma, as well as lenalidomide (L), bortezomib (B), dexamethasone (D), and LBH589 lactate, which is marketed for relapsed or refractory multiple myeloma. In the subcutaneous tumor model experiments using human-derived tumor cell lines, the inhibitory effect of Purinostat Mesylate on tumors was assessed by measuring tumor volume (TV), tumor weight, relative tumor volume (RTV), and relative tumor growth rate (T/C). Additionally, in some model experiments, satellite groups were designed, where animals in these groups were not sacrificed at the same treatment endpoint and received extended treatment. […]
# T3 sequence (P33261 whole entry): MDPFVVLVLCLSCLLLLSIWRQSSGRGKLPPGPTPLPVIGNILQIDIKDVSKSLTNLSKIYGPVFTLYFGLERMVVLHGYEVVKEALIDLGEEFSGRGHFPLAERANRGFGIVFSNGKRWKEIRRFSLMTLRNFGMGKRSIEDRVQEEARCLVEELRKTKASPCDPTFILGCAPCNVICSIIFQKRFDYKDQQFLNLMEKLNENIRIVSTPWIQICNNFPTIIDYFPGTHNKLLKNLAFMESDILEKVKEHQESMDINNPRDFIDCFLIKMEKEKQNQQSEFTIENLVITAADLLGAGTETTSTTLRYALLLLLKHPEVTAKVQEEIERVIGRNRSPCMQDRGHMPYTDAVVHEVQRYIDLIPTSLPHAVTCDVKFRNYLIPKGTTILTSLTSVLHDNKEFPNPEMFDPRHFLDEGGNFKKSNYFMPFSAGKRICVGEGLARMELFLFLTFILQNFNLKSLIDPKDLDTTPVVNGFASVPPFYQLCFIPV
# T4 sequence (P10635 whole entry): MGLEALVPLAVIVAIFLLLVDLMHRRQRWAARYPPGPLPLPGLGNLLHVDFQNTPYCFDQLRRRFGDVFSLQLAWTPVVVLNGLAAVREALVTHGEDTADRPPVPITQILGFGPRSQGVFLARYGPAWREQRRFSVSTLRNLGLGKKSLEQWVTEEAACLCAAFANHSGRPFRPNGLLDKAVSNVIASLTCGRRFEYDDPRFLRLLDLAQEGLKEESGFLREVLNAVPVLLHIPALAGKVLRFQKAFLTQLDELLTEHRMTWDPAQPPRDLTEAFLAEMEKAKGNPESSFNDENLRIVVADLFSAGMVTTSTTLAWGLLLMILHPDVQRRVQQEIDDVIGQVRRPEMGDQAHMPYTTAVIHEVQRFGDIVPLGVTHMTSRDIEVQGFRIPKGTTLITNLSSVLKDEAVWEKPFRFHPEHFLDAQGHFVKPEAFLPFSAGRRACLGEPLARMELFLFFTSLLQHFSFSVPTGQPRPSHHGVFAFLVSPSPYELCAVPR
# T1 sequence (P10632 whole entry): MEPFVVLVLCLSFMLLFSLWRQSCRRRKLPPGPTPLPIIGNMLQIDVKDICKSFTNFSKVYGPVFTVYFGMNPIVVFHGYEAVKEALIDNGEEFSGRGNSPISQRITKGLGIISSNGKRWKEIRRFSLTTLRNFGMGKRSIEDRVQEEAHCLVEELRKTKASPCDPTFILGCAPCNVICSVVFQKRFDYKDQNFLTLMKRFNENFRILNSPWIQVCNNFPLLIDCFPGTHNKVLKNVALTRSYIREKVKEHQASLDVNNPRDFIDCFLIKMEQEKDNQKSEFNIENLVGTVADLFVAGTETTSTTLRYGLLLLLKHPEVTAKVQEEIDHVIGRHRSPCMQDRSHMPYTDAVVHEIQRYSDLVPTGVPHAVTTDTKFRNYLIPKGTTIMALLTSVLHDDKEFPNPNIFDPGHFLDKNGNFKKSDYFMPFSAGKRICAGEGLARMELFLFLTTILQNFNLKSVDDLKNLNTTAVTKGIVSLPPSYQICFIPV
# T2 sequence (P11712 whole entry): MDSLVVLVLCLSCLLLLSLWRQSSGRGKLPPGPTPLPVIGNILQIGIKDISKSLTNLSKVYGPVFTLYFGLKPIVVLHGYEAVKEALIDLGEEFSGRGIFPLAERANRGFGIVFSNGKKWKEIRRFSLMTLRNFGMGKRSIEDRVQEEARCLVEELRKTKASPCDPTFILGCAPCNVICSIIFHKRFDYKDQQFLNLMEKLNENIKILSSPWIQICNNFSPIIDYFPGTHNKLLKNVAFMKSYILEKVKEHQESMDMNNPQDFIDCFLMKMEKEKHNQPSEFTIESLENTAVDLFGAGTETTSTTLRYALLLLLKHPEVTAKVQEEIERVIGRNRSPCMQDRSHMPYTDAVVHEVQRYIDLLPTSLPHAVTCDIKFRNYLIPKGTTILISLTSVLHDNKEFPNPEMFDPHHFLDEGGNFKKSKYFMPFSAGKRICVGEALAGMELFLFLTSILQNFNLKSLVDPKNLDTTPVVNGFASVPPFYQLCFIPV
# Chain of HDAC1 (Q13547 whole entry): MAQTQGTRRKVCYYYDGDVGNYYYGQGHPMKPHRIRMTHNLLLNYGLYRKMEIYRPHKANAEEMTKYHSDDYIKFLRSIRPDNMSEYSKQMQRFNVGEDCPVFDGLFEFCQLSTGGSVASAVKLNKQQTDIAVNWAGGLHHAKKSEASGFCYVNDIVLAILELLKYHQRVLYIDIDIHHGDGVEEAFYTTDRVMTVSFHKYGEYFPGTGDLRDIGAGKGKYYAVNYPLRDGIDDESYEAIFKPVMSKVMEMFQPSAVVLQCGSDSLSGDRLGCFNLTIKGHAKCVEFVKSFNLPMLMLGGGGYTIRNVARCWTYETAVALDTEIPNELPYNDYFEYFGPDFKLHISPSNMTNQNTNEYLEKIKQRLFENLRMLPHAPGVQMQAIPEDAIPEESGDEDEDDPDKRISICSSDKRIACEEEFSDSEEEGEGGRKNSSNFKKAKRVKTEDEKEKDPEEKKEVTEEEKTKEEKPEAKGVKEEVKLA
smiles,measurement,setting,value
"CN(Cc1nc2c(N3CCOCC3)nc(-c3ccc(N)cc3)nc2n1C)c1ncc(C(=O)NO)cn1.CS(=O)(=O)O [PM, 2-(((2-(4-Aminophenyl)-9-methyl-6-(4-morpholinyl)-9H-purine-8-yl)methyl)methylamino)-N-hydroxy-5-pyrimidine-carboxamide Mesylate]",IC50,HDAC1,0.00081 µM
same,relative tumor growth rate T/C,MM1S xenograft; 2.5 mg/kg,49.9%
same,tumor inhibition rate,MM1S xenograft; 2.5 mg/kg i.v. three times a week,55.67%
same,relative tumor growth rate T/C,MM1S xenograft; 5 mg/kg,32.0%
same,tumor inhibition rate,MM1S xenograft; 5 mg/kg i.v. three times a week,64.39%
same,relative tumor growth rate T/C,MM1S xenograft; 10 mg/kg,21.8%
same,tumor inhibition rate,MM1S xenograft; 10 mg/kg i.v. three times a week,71.76%
same,relative tumor growth rate T/C,MM1S xenograft; 20 mg/kg,18.3%
same,tumor inhibition rate,MM1S xenograft; 20 mg/kg i.v. three times a week,76.44%
same,median survival time,MM1S xenograft; 5 mg/kg,29.0 days
same,median survival time,MM1S xenograft; 10 mg/kg,34.5 days
same,mature osteoclast formation (TRAP staining),[1],obviously suppressed mature osteoclast cells formation
same,IC50,solid tumor cells; all lines,< 0.1 µM
same,IC50,solid tumor cells; most tumor cell lines,< 0.05 µM
same,time until effect detectable,Ramos-luc,24 h
same,T/C,[2]; 1.25 mg/kg,48.13±5.13%
same,tumor inhibition rate,"[2]; 1.25 mg/kg, mean of two batches",52.03 ± 3.36%
same,T/C,[2]; 2.5 mg/kg,31.86±8.56%
same,tumor inhibition rate,[2]; 2.5 mg/kg,66.15 ± 12.49%
same,T/C,[2]; 5 mg/kg,18.11±7.50%
same,tumor inhibition rate,[2]; 5 mg/kg,81.65 ± 8.67%
same,T/C,[2]; 10 mg/kg,7.75±5.02%
same,tumor inhibition rate,[2]; 10 mg/kg,89.98 ± 8.01%
same,median survival time,"[2]; satellite group, 10 mg/kg",39 days
same,mortality,[3]; 50 mg/kg,all animals dying between days 2 and 4
same,MTD,"[3]; beagle, dog, in vivo, iv, single i.v., read-out: maximum tolerated dose (MTD)",10 mg/kg
same,"prolongation of QT interval, transient and reversible",[4],9.6%
same,body temperature,[5],a decrease in body temperature
same,AUC(0-t),[6]; 0.3 mg/kg,75.1 ± 18.3 ng·h/mL
same,Cmax,[6]; 0.3 mg/kg single i.v.,130 ± 35.5 ng/mL
same,half-life,"[6]; 0.3 mg/kg, read-out: T1/2 (converted)",4.49 ± 0.669 h
same,Vd,[6]; 0.3 mg/kg,3.69 ± 0.957 L/kg
same,clearance,[6]; 0.3 mg/kg,68.4 ± 13.2 mL/min/kg
same,AUC(0-t),[6]; 1 mg/kg,238 ± 63.1 ng·h/mL
same,Cmax,[6]; 1 mg/kg single i.v.,411 ± 162 ng/mL
same,half-life,"[6]; 1 mg/kg, read-out: T1/2 (converted)",7.05 ± 3.07 h
same,Vd,[6]; 1 mg/kg,3.85 ± 1.8 L/kg
same,clearance,[6]; 1 mg/kg,73.4 ± 17.9 mL/min/kg
same,AUC(0-t),[6]; 3 mg/kg,713 ± 122 ng·h/mL
same,Cmax,[6]; 3 mg/kg single i.v.,1230 ± 166 ng/mL
same,half-life,"[6]; 3 mg/kg, read-out: T1/2 (converted)",8.47 ± 1.26 h
same,Vd,[6]; 3 mg/kg,2.89 ± 0.605 L/kg
same,clearance,[6]; 3 mg/kg,71.5 ± 11.6 mL/min/kg
same,half-life,"[6]; single i.v., range over doses, read-out: half-life",4.49 to 8.47 h
same,IC50,CYP2C8,> 10 µM
same,IC50,CYP2C9,> 10 µM
same,IC50,CYP2C19,> 10 µM
same,IC50,CYP2D6,> 10 µM
same,induction of CYP1A2,CYP1A2,did not act as an inducer
same,induction of CYP3A4,CYP3A4,did not act as an inducer
same,cytotoxicity on donor liver cells,human liver cells,exhibited cytotoxic effects on donor liver cells at concentrations up to 5.00 μM
same,median survival time,"T315I Bcr-Abl B-ALL; 5 mg/kg, solvent control 44 days",greater than 80 days
same,median survival time,T315I Bcr-Abl B-ALL; 10 mg/kg,greater than 80 days
